In patent publication US20150079000A1, “Labelled Quinoxaline Derivatives as Multimodal Radiopharmaceuticals and Their Precursors” (INSTITUT NATIONAL DE LA SANTET DE LA RECHERCHE MEDICALE, priority 2012, published 2015):

Tested on: B16 murine melanoma tumours
Test: Ex vivo biodistribution of [18F]-labelled compounds
Assay type: in vivo, C57BL/6J mice
Protocol: All our studies were performed in accordance with French and European Economic Community (86-609, EEC) guidelines for care of laboratory animals. Protocols were performed under the authorization of the French Direction des Services Veterinaires (authorization no. CE 86-12). Male C57BL/6J mice were originating from Charles River laboratories and maintained at 21° C. with a 12 h/12 h light/dark cycle, fed with a breeding diet (diet A04 from Safe, Villemoisson, France) and received water ad libitum. For transplantation B16BL6 cell suspension were grown in a monolayer culture to confluence, after which cells were trypsinized, washed with phosphate buffer saline (PBS) and they were resuspended in PBS. Mice were anesthetized by isoflurane (4% for induction and 2±0.5% for maintaining in oxygen flux) inhalation. The primary tumour model was induced by subcutaneous injection of 3×10^5 melanoma B16B16 cells in 0.1 mL on the right shoulder of mice.
Ex vivo biodistribution studies: An ex vivo biodistribution study was performed for better comparison of [^18F](1) and [^18F](5). Experimentations were undertaken at day-10 or day-14 after cell inoculation (n=3-6/group). […] Tumours and major organs and tissues were promptly excised, harvested, weighted and their radioactivity counted using a calibrated γ-counter with a 400 to 600 keV energy window. After radioactive decay correction, results were expressed as percentage of injected dose per gram of tissue (% ID/g).

Structure (SMILES): CCN(CCNC(=O)c1cnc2cc(I)ccc2n1)CCOCCOCCOCC[18F] [[^18F](1)]
- % ID/g (tumour) (1 h p.i.): 14.05 ± 1.42 % ID/g
- % ID/g Blood (1 h p.i.): 1.42 ± 0.32 % ID/g
- % ID/g Bones (1 h p.i.): 1.40±0.10 % ID/g
- % ID/g Brain (1 h p.i.): 1.82 ± 0.08 % ID/g
- % ID/g Ceacum (1 h p.i.): 7.27 ± 0.62 % ID/g
- % ID/g Colon + faeces (1 h p.i.): 7.17 ± 2.93 % ID/g
- % ID/g Eyes (1 h p.i.): 18.36 ± 4.74 % ID/g
- % ID/g Heart (1 h p.i.): 2.72 ± 0.18 % ID/g
- % ID/g Kidney (1 h p.i.): 3.46 ± 0.53 % ID/g
- % ID/g Liver (1 h p.i.): 2.56 ± 0.22 % ID/g
- % ID/g Lung (1 h p.i.): 1.86 ± 0.15 % ID/g
- % ID/g Muscle (1 h p.i.): 1.17 ± 0.12 % ID/g
- % ID/g Pancreas (1 h p.i.): 2.09 ± 0.42 % ID/g
- % ID/g Skin (1 h p.i.): 1.44 ± 0.19 % ID/g
- % ID/g Small intestine (1 h p.i.): 7.58 ± 1.80 % ID/g
- % ID/g Spleen (1 h p.i.): 3.72 ± 1.49 % ID/g
- % ID/g Stomach (1 h p.i.): 4.41 ± 1.36 % ID/g
- TBR Tumour-to-Blood Ratio (1 h p.i.): 10.24 ± 2.83
- TBoR Tumour-to-Bone Ratio (1 h p.i.): 10.11 ± 1.87
- TMR Tumour-to-Muscle Ratio (1 h p.i.): 12.12 ± 2.29
- % ID/g (tumour) (2 h p.i.): 13.07 ± 1.22 % ID/g
- % ID/g Blood (2 h p.i.): 1.12 ± 0.24 % ID/g
- % ID/g Bones (2 h p.i.): 1.96 ± 0.51 % ID/g
- % ID/g Brain (2 h p.i.): 1.39 ± 0.25 % ID/g
- % ID/g Ceacum (2 h p.i.): 8.94 ± 1.78 % ID/g
- % ID/g Colon + faeces (2 h p.i.): 6.05 ± 1.72 % ID/g
- % ID/g Eyes (2 h p.i.): 18.17 ± 3.15 % ID/g
- % ID/g Heart (2 h p.i.): 2.14 ± 0.33 % ID/g
- % ID/g Kidney (2 h p.i.): 2.18 ± 0.43 % ID/g
- % ID/g Liver (2 h p.i.): 1.88 ± 0.34 % ID/g
- % ID/g Lung (2 h p.i.): 1.65 ± 0.11 % ID/g
- % ID/g Muscle (2 h p.i.): 0.92 ± 0.15 % ID/g
- % ID/g Pancreas (2 h p.i.): 1.33 ± 0.28 % ID/g
- % ID/g Skin (2 h p.i.): 1.51 ± 0.53 % ID/g
- % ID/g Small intestine (2 h p.i.): 4.28 ± 1.18 % ID/g
- % ID/g Spleen (2 h p.i.): 2.88 ± 2.11 % ID/g
- % ID/g Stomach (2 h p.i.): 2.48 ± 0.88 % ID/g
- TBR Tumour-to-Blood Ratio (2 h p.i.): 12.19 ± 3.32
- TBoR Tumour-to-Bone Ratio (2 h p.i.): 7.13 ± 2.21
- TMR Tumour-to-Muscle Ratio (2 h p.i.): 14.46 ± 2.62
- % ID/g (tumour) (3 h p.i.): 11.55±1.24 % ID/g
- % ID/g Blood (3 h p.i.): 0.80 ± 0.07 % ID/g
- % ID/g Bones (3 h p.i.): 3.27 ± 0.70 % ID/g
- % ID/g Brain (3 h p.i.): 1.37 ± 0.35 % ID/g
- % ID/g Ceacum (3 h p.i.): 10.79 ± 1.54 % ID/g
- % ID/g Colon + faeces (3 h p.i.): 8.09 ± 5.04 % ID/g
- % ID/g Eyes (3 h p.i.): 17.96 ± 2.73 % ID/g
- % ID/g Heart (3 h p.i.): 2.32 ± 0.50 % ID/g
- % ID/g Kidney (3 h p.i.): 2.19 ± 0.36 % ID/g
- % ID/g Liver (3 h p.i.): 1.99 ± 0.45 % ID/g
- % ID/g Lung (3 h p.i.): 1.60 ± 0.09 % ID/g
- % ID/g Muscle (3 h p.i.): 0.81 ± 0.10 % ID/g
- % ID/g Pancreas (3 h p.i.): 1.33 ± 0.35 % ID/g
- % ID/g Skin (3 h p.i.): 1.05 ± 0.12 % ID/g
- % ID/g Small intestine (3 h p.i.): 3.91 ± 1.05 % ID/g
- % ID/g Spleen (3 h p.i.): 1.87 ± 0.38 % ID/g
- % ID/g Stomach (3 h p.i.): 2.81 ± 2.23 % ID/g
- TBR Tumour-to-Blood Ratio (3 h p.i.): 14.43±1.75
- TBoR Tumour-to-Bone Ratio (3 h p.i.): 3.70 ± 1.17
- TMR Tumour-to-Muscle Ratio (3 h p.i.): 14.46±3.06
- in vivo defluorination (3 h p.i.): Partial in vivo defluorinations
